Reference: PMC5218480 (PLoS ONE, 2017)

Tested on: MV-4-11 cells
Assay: Gene expression microarray analysis (Affymetrix PrimeView) and GSEA
Format: cell-based, human
Parameters: RFU PODN (11730768_x_at) / Fold change /veh PODN (11730768_x_at) / RFU LINC00158 (11744669_a_at) / Fold change /veh LINC00158 (11744669_a_at) / RFU DUSP10 (11751237_a_at) / Fold change /veh DUSP10 (11751237_a_at) / RFU ID3 (11757404_x_at) / Fold change /veh ID3 (11757404_x_at) / RFU PLEKHG5 (11737974_s_at) / Fold change /veh PLEKHG5 (11737974_s_at) / RFU LRRC4B (11730491_at) / Fold change /veh LRRC4B (11730491_at) / RFU GIMAP4 (11747438_a_at) / Fold change /veh GIMAP4 (11747438_a_at) / RFU KRT8 (11758183_x_at) / Fold change /veh KRT8 (11758183_x_at) / RFU CNN1 (11734310_a_at) / Fold change /veh CNN1 (11734310_a_at) / RFU VPS37D (11726825_at) / Fold change /veh VPS37D (11726825_at) / RFU C10orf10 (11716522_x_at) / Fold change /veh C10orf10 (11716522_x_at) / RFU KIR2DL2 /// KIR2DL4 /// KIR2DL5A /// KIR2DL5B /// KIR2DS1 /// KIR2DS2 /// KIR2DS3 /// KIR2DS4 /// KIR3DL3 /// KIR3DL3 /// KIR3DS1 (11738374_at) / Fold change /veh KIR2DL2 /// KIR2DL4 /// KIR2DL5A /// KIR2DL5B /// KIR2DS1 /// KIR2DS2 /// KIR2DS3 /// KIR2DS4 /// KIR3DL3 /// KIR3DL3 /// KIR3DS1 (11738374_at) / RFU C1QL1 (11718748_at) / Fold change /veh C1QL1 (11718748_at) / RFU TMPRSS4 (11747572_a_at) / Fold change /veh TMPRSS4 (11747572_a_at) / RFU HAMP (11756126_x_at) / Fold change /veh HAMP (11756126_x_at) / RFU RNFT2 (11725882_a_at) / Fold change /veh RNFT2 (11725882_a_at) / RFU NR4A2 (11747474_a_at) / Fold change /veh NR4A2 (11747474_a_at) / RFU ABCC12 (11746883_a_at) / Fold change /veh ABCC12 (11746883_a_at) / RFU TMEM136 (11760407_x_at) / Fold change /veh TMEM136 (11760407_x_at) / RFU CLDN22 /// WWC2 (11732394_at) / Fold change /veh CLDN22 /// WWC2 (11732394_at) / RFU HLA-DPB1 (11760878_x_at) / Fold change /veh HLA-DPB1 (11760878_x_at) / RFU SPINT1 (11716480_a_at) / Fold change /veh SPINT1 (11716480_a_at) / RFU GAP43 (11754022_s_at) / Fold change /veh GAP43 (11754022_s_at) / RFU A4GNT (11735810_at) / Fold change /veh A4GNT (11735810_at) / RFU PRB3 (11715151_x_at) / Fold change /veh PRB3 (11715151_x_at) / RFU TUBB4B (11761932_at) / Fold change /veh TUBB4B (11761932_at) / RFU CAPN14 (11732068_a_at) / Fold change /veh CAPN14 (11732068_a_at) / RFU TMCC2 (11721928_a_at) / Fold change /veh TMCC2 (11721928_a_at) / RFU IRGQ (11745062_a_at) / Fold change /veh IRGQ (11745062_a_at) / RFU FAM174B (11720279_a_at) / Fold change /veh FAM174B (11720279_a_at) / RFU TMPRSS4 (11748680_a_at) / Fold change /veh TMPRSS4 (11748680_a_at) / RFU FAM212B (11763350_a_at) / Fold change /veh FAM212B (11763350_a_at) / RFU PLEKHG5 (11743358_a_at) / Fold change /veh PLEKHG5 (11743358_a_at) / RFU ZSCAN30 (11745921_a_at) / Fold change /veh ZSCAN30 (11745921_a_at) / RFU CMKLR1 (11741424_a_at) / Fold change /veh CMKLR1 (11741424_a_at) / RFU LOC101060620 /// MAPK8IP1 (11723275_at) / Fold change /veh LOC101060620 /// MAPK8IP1 (11723275_at) / RFU SPTSSB (11747773_x_at) / Fold change /veh SPTSSB (11747773_x_at) / RFU PRSS12 (11739890_at) / Fold change /veh PRSS12 (11739890_at) / RFU BIN1 (11741810_x_at) / Fold change /veh BIN1 (11741810_x_at) / RFU WNT11 (11732464_a_at) / Fold change /veh WNT11 (11732464_a_at) / RFU C10orf10 (11716521_a_at) / Fold change /veh C10orf10 (11716521_a_at) / RFU C5orf56 (11738089_at) / Fold change /veh C5orf56 (11738089_at) / RFU CYB561 (11721691_x_at) / Fold change /veh CYB561 (11721691_x_at) / RFU ANKRD19P (11752326_a_at) / Fold change /veh ANKRD19P (11752326_a_at) / RFU OR2T12 /// OR2T33 /// OR2T8 (11738714_s_at) / Fold change /veh OR2T12 /// OR2T33 /// OR2T8 (11738714_s_at) / RFU VCAN (11748164_a_at) / Fold change /veh VCAN (11748164_a_at) / RFU JSRP1 (11732532_at) / Fold change /veh JSRP1 (11732532_at) / RFU KRTAP10-11 (11738290_x_at) / Fold change /veh KRTAP10-11 (11738290_x_at) / RFU MYO3A (11730013_a_at) / Fold change /veh MYO3A (11730013_a_at) / RFU EBF3 (11725865_a_at) / Fold change /veh EBF3 (11725865_a_at) / RFU CAMK2N1 (11719241_x_at) / Fold change /veh CAMK2N1 (11719241_x_at) / RFU C5orf56 (11738088_a_at) / Fold change /veh C5orf56 (11738088_a_at) / RFU OLFML3 (11715873_a_at) / Fold change /veh OLFML3 (11715873_a_at) / RFU LOC100653217 /// NTM (11731650_a_at) / Fold change /veh LOC100653217 /// NTM (11731650_a_at) / RFU MAPK11 (11762145_a_at) / Fold change /veh MAPK11 (11762145_a_at) / RFU FIZ1 (11724087_x_at) / Fold change /veh FIZ1 (11724087_x_at) / RFU OASL (11726364_x_at) / Fold change /veh OASL (11726364_x_at) / RFU SOX15 (11748057_x_at) / Fold change /veh SOX15 (11748057_x_at) / RFU CD79A (11719716_a_at) / Fold change /veh CD79A (11719716_a_at) / RFU HIST1H1D (11736915_at) / Fold change /veh HIST1H1D (11736915_at) / RFU CASKIN2 (11723855_a_at) / Fold change /veh CASKIN2 (11723855_a_at) / RFU LOC730098 (11760151_x_at) / Fold change /veh LOC730098 (11760151_x_at) / RFU OR4N2 (11742367_at) / Fold change /veh OR4N2 (11742367_at) / RFU PRRT2 (11749266_a_at) / Fold change /veh PRRT2 (11749266_a_at) / RFU SNX32 (11753110_a_at) / Fold change /veh SNX32 (11753110_a_at) / RFU CDHR5 (11726645_a_at) / Fold change /veh CDHR5 (11726645_a_at) / RFU RCAN1 (11760418_a_at) / Fold change /veh RCAN1 (11760418_a_at) / RFU FAM167A (11723789_a_at) / Fold change /veh FAM167A (11723789_a_at) / RFU FAM26E (11764081_at) / Fold change /veh FAM26E (11764081_at) / RFU ISYNA1 (11749810_s_at) / Fold change /veh ISYNA1 (11749810_s_at) / RFU ACY1 (11761880_at) / Fold change /veh ACY1 (11761880_at) / RFU 11764098_at / Fold change /veh 11764098_at / RFU SAMD14 (11745864_x_at) / Fold change /veh SAMD14 (11745864_x_at) / RFU NPB (11741838_a_at) / Fold change /veh NPB (11741838_a_at) / RFU TMPRSS6 (11731388_a_at) / Fold change /veh TMPRSS6 (11731388_a_at) / RFU KRTAP10-2 (11738614_at) / Fold change /veh KRTAP10-2 (11738614_at) / RFU ARHGAP8 /// PRR5-ARHGAP8 (11727945_x_at) / Fold change /veh ARHGAP8 /// PRR5-ARHGAP8 (11727945_x_at) / RFU KRTAP5-7 /// NADSYN1 (11734609_at) / Fold change /veh KRTAP5-7 /// NADSYN1 (11734609_at) / RFU RASL12 (11751679_a_at) / Fold change /veh RASL12 (11751679_a_at) / RFU CDKN2B (11736163_a_at) / Fold change /veh CDKN2B (11736163_a_at) / RFU PRF1 (11729649_at) / Fold change /veh PRF1 (11729649_at) / RFU, ZNF638 /// ZNF638-IT1 / Fold change vs veh, ZNF638 /// ZNF638-IT1 / RFU, PANK3 / Fold change vs veh, PANK3 / RFU, SH3YL1 / Fold change vs veh, SH3YL1 / RFU, ZEB2 / Fold change vs veh, ZEB2 / RFU, NRIP1 / Fold change vs veh, NRIP1 / RFU, PTTG1IP / Fold change vs veh, PTTG1IP / RFU, CAPN2 / Fold change vs veh, CAPN2 / RFU, MED14 / Fold change vs veh, MED14 / RFU, SNORA58 / Fold change vs veh, SNORA58 / RFU, C1orf63 / Fold change vs veh, C1orf63 / RFU, LRRFIP1 / Fold change vs veh, LRRFIP1 / RFU, NDUFAF7 / Fold change vs veh, NDUFAF7 / RFU, SLC12A2 / Fold change vs veh, SLC12A2 / RFU, IBTK / Fold change vs veh, IBTK / RFU, ESF1 / Fold change vs veh, ESF1 / Fold change vs veh, TMEM50B / RFU, TAOK1 / Fold change vs veh, TAOK1 / RFU, ACBD3 / Fold change vs veh, ACBD3 / RFU, TMA16 / Fold change vs veh, TMA16 / RFU, RWDD3 / Fold change vs veh, RWDD3 / RFU, BCAT1 / Fold change vs veh, BCAT1 / RFU, EDEM3 / Fold change vs veh, EDEM3 / RFU, TMEM33 / Fold change vs veh, TMEM33 / RFU, WDR75 / Fold change vs veh, WDR75 / RFU, AHCTF1 / Fold change vs veh, AHCTF1 / RFU, TFRC / Fold change vs veh, TFRC / RFU, ZDHHC17 / Fold change vs veh, ZDHHC17 / RFU, NOM1 / Fold change vs veh, NOM1 / RFU, ARL8B / Fold change vs veh, ARL8B / RFU, ZBTB11 / Fold change vs veh, ZBTB11 / RFU, TAMM41 / Fold change vs veh, TAMM41 / RFU, KIAA1704 /// LOC100996395 / Fold change vs veh, KIAA1704 /// LOC100996395 / RFU, ING1 / Fold change vs veh, ING1 / RFU, TRMT61B / Fold change vs veh, TRMT61B / RFU, FUBP3 / Fold change vs veh, FUBP3 / RFU, TP53 / Fold change vs veh, TP53 / RFU, TNKS2 / Fold change vs veh, TNKS2 / RFU, ZFP14 / Fold change vs veh, ZFP14 / RFU, ACTR2 / Fold change vs veh, ACTR2 / RFU, PPP3R1 / Fold change vs veh, PPP3R1 / RFU, PIK3R1 / Fold change vs veh, PIK3R1 / RFU, HNRNPA1 / Fold change vs veh, HNRNPA1 / RFU, RNF170 / Fold change vs veh, RNF170 / RFU, ZNF28 / Fold change vs veh, ZNF28 / RFU, RNGTT / Fold change vs veh, RNGTT / RFU, OGT / Fold change vs veh, OGT / RFU, BRD1 / Fold change vs veh, BRD1 / RFU, MARS / Fold change vs veh, MARS / RFU, ZNF655 / Fold change vs veh, ZNF655 / RFU, FAHD1 / Fold change vs veh, FAHD1 / RFU, BDP1 / Fold change vs veh, BDP1 / RFU, LRRCC1 / Fold change vs veh, LRRCC1 / RFU, ARID1A / Fold change vs veh, ARID1A / RFU, ZNF146 / Fold change vs veh, ZNF146 / RFU, ZNF330 / Fold change vs veh, ZNF330 / RFU, GPN3 / Fold change vs veh, GPN3 / RFU, C9orf123 / Fold change vs veh, C9orf123 / RFU, N4BP2L2 / Fold change vs veh, N4BP2L2 / RFU, ARFIP1 / Fold change vs veh, ARFIP1 / RFU, FAM179B / Fold change vs veh, FAM179B / RFU, BCL10 / Fold change vs veh, BCL10 / RFU, UHRF1BP1L / Fold change vs veh, UHRF1BP1L / RFU, BET1 / Fold change vs veh, BET1 / RFU, CNOT2 / Fold change vs veh, CNOT2 / RFU, ZNF268 / Fold change vs veh, ZNF268 / Fold change vs veh, ZNF507 / RFU, DGCR2 / Fold change vs veh, DGCR2 / RFU, WDSUB1 / Fold change vs veh, WDSUB1 / Fold change vs veh, HSP90B1 /// MIR3652 / RFU, ADSS / Fold change vs veh, ADSS / RFU, GK / Fold change vs veh, GK / RFU, ZNF148 / Fold change vs veh, ZNF148 / RFU, TAF9 / Fold change vs veh, TAF9 / RFU, SLC1A5 / Fold change vs veh, SLC1A5 / RFU, SLMO2 / Fold change vs veh, SLMO2 / RFU, ABCC4 / Fold change vs veh, ABCC4 / RFU, LOC101060439 /// RAP1B / Fold change vs veh, LOC101060439 /// RAP1B / RFU, RFX7 / Fold change vs veh, RFX7 / RFU, GTPBP10 / Fold change vs veh, GTPBP10 / RFU, CNEP1R1 / Fold change vs veh, CNEP1R1 / RFU, BIVM-ERCC5 /// ERCC5 / Fold change vs veh, BIVM-ERCC5 /// ERCC5 / RFU, ILF3 / Fold change vs veh, ILF3 / RFU 11762660_at / Fold change /veh 11762660_at / RFU VCAN (11757783_s_at) / Fold change /veh VCAN (11757783_s_at) / RFU DDX43 (11728927_at) / Fold change /veh DDX43 (11728927_at) / RFU KRT8 (11758188_x_at) / Fold change /veh KRT8 (11758188_x_at) / RFU NKD1 (11759106_at) / Fold change /veh NKD1 (11759106_at) / RFU SRD5A1 (11742802_a_at) / Fold change /veh SRD5A1 (11742802_a_at) / RFU TPSAB1 /// TPSB2 (11721975_s_at) / Fold change /veh TPSAB1 /// TPSB2 (11721975_s_at) / RFU GSTM3 (11746129_a_at) / Fold change /veh GSTM3 (11746129_a_at) / RFU IL23R (11737362_x_at) / Fold change /veh IL23R (11737362_x_at) / RFU TMEM51 (11727254_a_at) / Fold change /veh TMEM51 (11727254_a_at) / RFU PIWIL2 (11732686_x_at) / Fold change /veh PIWIL2 (11732686_x_at) / RFU ORM1 (11744905_x_at) / Fold change /veh ORM1 (11744905_x_at) / RFU CCDC152 (11743942_at) / Fold change /veh CCDC152 (11743942_at) / RFU ECM1 (11717891_a_at) / Fold change /veh ECM1 (11717891_a_at) / RFU IL23R (11748794_a_at) / Fold change /veh IL23R (11748794_a_at) / RFU TNFAIP8L3 (11732012_x_at) / Fold change /veh TNFAIP8L3 (11732012_x_at) / RFU MBOAT4 (11741988_at) / Fold change /veh MBOAT4 (11741988_at) / RFU 11764193_at / Fold change /veh 11764193_at / RFU TMEM53 (11763286_at) / Fold change /veh TMEM53 (11763286_at) / RFU MAGEB2 (11727129_at) / Fold change /veh MAGEB2 (11727129_at) / RFU TMEM200A (11744735_a_at) / Fold change /veh TMEM200A (11744735_a_at) / RFU CCDC152 (11751479_a_at) / Fold change /veh CCDC152 (11751479_a_at) / RFU FAM211A (11726209_a_at) / Fold change /veh FAM211A (11726209_a_at) / RFU RGS16 (11746705_a_at) / Fold change /veh RGS16 (11746705_a_at) / RFU VCAN (11755009_s_at) / Fold change /veh VCAN (11755009_s_at) / RFU RHOB (11743442_s_at) / Fold change /veh RHOB (11743442_s_at) / RFU RGS16 (11720943_a_at) / Fold change /veh RGS16 (11720943_a_at) / RFU RGS16 (11720944_at) / Fold change /veh RGS16 (11720944_at) / RFU, VPS4B / Fold change vs veh, VPS4B / RFU, CREB1 / Fold change vs veh, CREB1 / RFU, DNAJC13 / Fold change vs veh, DNAJC13 / RFU, GNAQ / Fold change vs veh, GNAQ / RFU, CDK5R1 / Fold change vs veh, CDK5R1 / RFU, ZRANB3 / Fold change vs veh, ZRANB3 / RFU, CUL4A / Fold change vs veh, CUL4A / RFU, CCNY / Fold change vs veh, CCNY / RFU, UFL1 / Fold change vs veh, UFL1 / RFU, COG3 / Fold change vs veh, COG3 / RFU, DIAPH2 / Fold change vs veh, DIAPH2 / RFU, SKA2 / Fold change vs veh, SKA2 / RFU, AFF3 / Fold change vs veh, AFF3 / RFU, LMF1 / Fold change vs veh, LMF1 / RFU, IPO11 / Fold change vs veh, IPO11 / RFU, DFFB / Fold change vs veh, DFFB / RFU, FOXP1 / Fold change vs veh, FOXP1 / RFU, CARD8 / Fold change vs veh, CARD8 / RFU, STRN3 / Fold change vs veh, STRN3 / RFU, ADK / Fold change vs veh, ADK / RFU, RASSF2 / Fold change vs veh, RASSF2 / RFU, WIPF1 / Fold change vs veh, WIPF1 / RFU, LARP1B / Fold change vs veh, LARP1B / RFU, RASA1 / Fold change vs veh, RASA1 / RFU, RB1 / Fold change vs veh, RB1 / RFU, PPFIA1 / Fold change vs veh, PPFIA1 / RFU, MAT2A / Fold change vs veh, MAT2A / RFU, CCT5 / Fold change vs veh, CCT5 / RFU, WDR92 / Fold change vs veh, WDR92 / RFU, CUX1 / Fold change vs veh, CUX1 / RFU, TTC7A / Fold change vs veh, TTC7A / RFU, TMEM135 / Fold change vs veh, TMEM135 / RFU, DEPTOR / Fold change vs veh, DEPTOR / RFU, CPM / Fold change vs veh, CPM / RFU, DNAJB6 / Fold change vs veh, DNAJB6 / RFU, CACNA2D3 / Fold change vs veh, CACNA2D3 / RFU, DTX4 / Fold change vs veh, DTX4 / RFU, TFCP2 / Fold change vs veh, TFCP2 / RFU, GMCL1 /// GMCL1P1 / Fold change vs veh, GMCL1 /// GMCL1P1 / RFU, AEBP2 / Fold change vs veh, AEBP2 / RFU, SNHG1 /// SNORD22 /// SNORD25 /// SNORD26 /// SNORD27 /// SNORD28 /// SNORD29 /// SNORD31 / Fold change vs veh, SNHG1 /// SNORD22 /// SNORD25 /// SNORD26 /// SNORD27 /// SNORD28 /// SNORD29 /// SNORD31 / Fold change (Aza/veh), C12orf56 (ProbeSet 11735607_a_at) / Fold change (ACY-1035/veh), C12orf56 (ProbeSet 11735607_a_at) / Fold change (Aza/veh), FGFR1OP (ProbeSet 11751329_s_at) / Fold change (ACY-1035/veh), FGFR1OP (ProbeSet 11751329_s_at) / Fold change (Aza/veh), VPS36 (ProbeSet 11739960_a_at) / Fold change (ACY-1035/veh), VPS36 (ProbeSet 11739960_a_at) / RFU SYPL1 (11715823_x_at) / Fold change /veh SYPL1 (11715823_x_at) / RFU IGFBP7 (11715501_s_at) / Fold change /veh IGFBP7 (11715501_s_at) / RFU REEP3 (11722064_at) / Fold change /veh REEP3 (11722064_at) / RFU IGLL1 (11728026_x_at) / Fold change /veh IGLL1 (11728026_x_at): dose or concentration left out as unconfirmed
Conditions: MV-4-11 cells, 48 hours

With `Nc1ncn([C@@H]2O[C@H](CO)[C@@H](O)[C@H]2O)c(=O)n1` [azacitidine] the “Fold change /veh DUSP10 (11751237_a_at)” value was 1.16.
